Source: a melting point compilation (Tetko et al.)
Residues, ends and D or L forms follow the SMILES beside them. *: point of attachment. Cyclohexanecarbonyl = O=C(C1CCCCC1)*; Boc = CC(C)(C)OC(=O)*; Bn = c1ccc(C*)cc1

**Q.** For `O=S(=O)(Cl)Cc1cccc(C(F)(F)F)c1`, which melting point is on record?
**A.** 60 °C

**Q.** For `O=C(Oc1ccc2c(OC(=O)c3ccc(OCc4ccccc4)cc3)c3cc(OC(=O)c4ccc(OCc5ccccc5)cc4)ccc3cc2c1)c1ccc(OCc2ccccc2)cc1`, which melting point is on record?
**A.** 219 to 221 °C

**Q.** For `COCCOc1ccc(/C=C(\C)C(=O)NS(=O)(=O)CC(F)(F)F)c(Oc2ncc(C(F)(F)F)cc2Cl)c1`, which melting point is on record?
**A.** 159 to 160 °C

**Q.** For `O=C(Oc1c(I)cc(I)cc1I)C(F)(F)C(F)(F)C(F)(F)C(F)(F)C(F)(F)C(F)(F)F`, which melting point is on record?
**A.** 71 to 73 °C

**Q.** For `CCc1nc(OC)c(NC(=O)N2CCN(c3cc(OC)c(OC)c(OC)c3)CC2)cc1C(=O)NC(C)C(=O)Nc1cc(CO)cc(Nc2c3ccccc3nc3ccccc23)c1` (centres undefined), which melting point is on record?
**A.** 205 to 207 °C

**Q.** For `COC(=O)c1ccc(Cn2c(C(=O)C3CCN(CCC4(c5ccc(OC)c(OC)c5)CCN(C(=O)c5cc(OC)c(OC)c(OC)c5)C4)CC3)nc3ccccc32)cc1` (centres undefined), which melting point is on record?
**A.** 100 to 104 °C

**Q.** For `CC(OC(C)C(I)=C(I)I)C(I)=C(I)I` (centres undefined), which melting point is on record?
**A.** 43.5 to 44.5 °C

**Q.** With `CC(C)CCCC(C)C1CCC2C3CC=C4CC(NCCCCC(=O)NCCC(=O)NCCC(=O)NCCCCC(C(=O)O)N(CC(=O)O)CC(=O)O)CCC4(C)C3CCC12C` (centres undefined) as the compound, how does the melting point read?
**A.** 101 to 103 °C

**Q.** With `NC(=NC(=O)OCc1ccc([N+](=O)[O-])cc1)N(CCSSCCN(C(=O)OCc1ccc([N+](=O)[O-])cc1)C(N)=NC(=O)OCc1ccc([N+](=O)[O-])cc1)C(=O)OCc1ccc([N+](=O)[O-])cc1` as the compound, how does the melting point read?
**A.** 165 °C

**Q.** With `CN(CC(O)C(CC1CCCCC1)NC(=O)C(Cc1c[nH]cn1)NC(=O)C(CC(=O)C(C)(C)C)Cc1ccccc1)C(Cc1c[nH]cn1)NC(=O)C(CC(=O)C(C)(C)C)Cc1ccccc1` (centres undefined) as the compound, how does the melting point read?
**A.** 118 °C

**Q.** For `Cc1cc(CNC(=O)c2nc(N3CCOCC3)n(C)c(=O)c2O)ccc1F`, which melting point is on record?
**A.** 182 to 185 °C

**Q.** Which melting point does the source give for `N=S(=O)(C=Cc1ccccc1N)c1ccccc1` (centres undefined) here?
**A.** 95 to 96 °C

**Q.** With `Cc1ccc2c(c1)CC(=O)N2c1c(F)cc(F)cc1Cl` as the compound, how does the melting point read?
**A.** 137 to 140 °C

**Q.** With `O=C(Oc1cccc2cc3cccc(OC(=O)c4ccccc4Oc4ccccc4)c3c(OC(=O)c3ccccc3Oc3ccccc3)c12)c1ccccc1Oc1ccccc1` as the compound, how does the melting point read?
**A.** 110 °C

**Q.** Which melting point does the source give for `O=S(=O)(OCC(I)C(F)(F)C(F)(F)C(F)(F)C(F)(F)F)OCC(I)C(F)(F)C(F)(F)C(F)(F)C(F)(F)F` (centres undefined) here?
**A.** 45 to 48 °C

**Q.** For `COC(=O)C(CC(C)C)NC(=O)C(Cc1ccc(OCc2ccccc2)cc1)NC(=O)C(COCc1ccccc1)NC(=O)C(Cc1c[nH]c2ccccc12)NC(=O)C1CCCCC1` (Cyclohexanecarbonyl-WS(Bn)Y(Bn)L-OMe; configuration not given here), which melting point is on record?
**A.** 158 to 160 °C

**Q.** With `COC(=O)COc1cc(F)ccc1[N+](=O)[O-]` as the compound, how does the melting point read?
**A.** 85 to 87 °C

**Q.** With `O=C(O)Cc1cccc(-c2cc(C(=O)CCCCC(=O)c3ccc(OC4OC(CO)C(O)C(O)C4O)c(-c4cccc(CC(=O)O)c4)c3)ccc2OC2OC(CO)C(O)C(O)C2O)c1` (centres undefined) as the compound, how does the melting point read?
**A.** 127 to 129 °C

**Q.** Which melting point does the source give for `CCCCCCCCCCCCCCCc1cccc(Oc2ccccc2SSc2ccccc2Oc2cccc(CCCCCCCCCCCCCCC)c2)c1` here?
**A.** 89 to 90 °C

**Q.** Which melting point does the source give for `COc1cc(OC)c(/C=C/C(c2ccc(OC)c(NCCC(=O)O)c2)S(=O)(=O)C(/C=C/c2c(OC)cc(OC)cc2OC)c2ccc(OC)c(NCCC(=O)O)c2)c(OC)c1` (centres undefined) here?
**A.** 156 to 158 °C

**Q.** With `COC(=O)C(C)NC(=O)C(COCc1ccccc1)NC(=O)C(Cc1ccc(OCc2ccccc2)cc1)NC(=O)C(Cc1c[nH]c2ccccc12)NC(=O)OC(C)(C)C` (centres undefined) (Boc-WY(Bn)S(Bn)A-OMe; configuration not given here) as the compound, how does the melting point read?
**A.** 178 to 182 °C

**Q.** Which melting point does the source give for `Cc1cccc(-c2sc(N)nc2-c2ccc([N+](=O)[O-])c(O)c2)n1` here?
**A.** 260 to 262 °C

**Q.** With `CCOC(=O)C(C)OC1C(Cl)=C(OC2=C(Cl)C(OC(C)C(=O)OCC)C(c3ccccc3C(F)(F)F)([N+](=O)[O-])C=C2)C=CC1(c1ccccc1C(F)(F)F)[N+](=O)[O-]` (centres undefined) as the compound, how does the melting point read?
**A.** 71 to 74 °C

**Q.** With `CC(C)CCCC(C)CCC1(CCC(C)CCCC(C)C)c2cc(Br)ccc2-c2ccc(-c3nc4cc5sc(-c6ccc7c(c6)C(CCC(C)CCCC(C)C)(CCC(C)CCCC(C)C)c6cc(Br)ccc6-7)nc5cc4s3)cc21` (centres undefined) as the compound, how does the melting point read?
**A.** 163 to 166 °C

**Q.** Which melting point does the source give for `Cc1ccc(Cl)cc1C(N)=NO` here?
**A.** 111 to 113 °C

**Q.** With `CCCC(=O)c1cnc2c(C(C)O)cccc2c1Nc1ccccc1C` (centres undefined) as the compound, how does the melting point read?
**A.** 140 to 142 °C

**Q.** For `[N-]=[N+]=C(C(=O)OCCN(CCOC(=O)C(=[N+]=[N-])C(=O)C1CCCCC1)CCN(CCOC(=O)C(=[N+]=[N-])C(=O)C1CCCCC1)CCOC(=O)C(=[N+]=[N-])C(=O)C1CCCCC1)C(=O)C1CCCCC1`, which melting point is on record?
**A.** 112 to 114 °C

**Q.** With `CCCCCCCCCCCCCCCCCCCCCCCCCC(=O)NC(COC1OC(CO)C(O)C(O)C1O)C(O)C(O)CCCCCCCCCCCCCC` (centres undefined) as the compound, how does the melting point read?
**A.** 190 °C

**Q.** With `C=Cc1cc(C=Cc2cc(C=Cc3cc(C(C)(C)C)cc(C(C)(C)C)c3)cc(C=Cc3cc(C(C)(C)C)cc(C(C)(C)C)c3)c2)cc(C=Cc2cc(C=Cc3cc(C(C)(C)C)cc(C(C)(C)C)c3)cc(C=Cc3cc(C(C)(C)C)cc(C(C)(C)C)c3)c2)c1` as the compound, how does the melting point read?
**A.** 272 to 275 °C
